Assays:
Assay in all cases: KINOMEscan
Type in all cases: binding
Details in all cases: 2000 nM
PKAC-beta = target: T1, PKAC-beta (Homo sapiens, UniProt P22694)
T1 construct: DNA label (qPCR read-out); purchased KINOMEscan (DiscoveRx) panel

PAK6 = target: T2, PAK6 (Homo sapiens, UniProt Q9NQU5)
T2 construct: purchased DiscoverX (KINOMEscan service)

LYN = LYN (Homo sapiens, UniProt P07948)
DYRK1B = target: T3, DYRK1B (Homo sapiens, UniProt Q9Y463)
T3 construct: DNA label (qPCR read-out); purchased KINOMEscan (DiscoveRx) panel

PAK7 = target: T4, PAK7 (Homo sapiens, UniProt Q9P286)
T4 construct: purchased DiscoverX (KINOMEscan service)

WNK2 = target: T5, WNK2 (Homo sapiens, UniProt Q9Y3S1)
T5 construct: purchased KINOMEscan (DiscoveRx) panel service

SYK = target: T6, SYK (Homo sapiens, UniProt P43405)
T6 construct: DNA label (for qPCR read-out); purchased DiscoveRx (KINOMEscan scanMAX panel, contract assay)

CAMK2B = target: T7, CAMK2B (Homo sapiens, UniProt Q13554)
T7 construct: DNA label (qPCR read-out); purchased KINOMEscan (ScanMAX panel service)

FLT3 = target: T8, FLT3 (Homo sapiens, UniProt P36888)
T8 construct: purchased DiscoveRx (KINOMEscan scanMAX panel)

GSK3B = target: T9, GSK3B (Homo sapiens, UniProt P49841)
T9 construct: DNA label (for qPCR read-out); purchased DiscoveRx (KINOMEscan scanMAX panel, contract assay)

TIE2 = target: T10, TIE2 (Homo sapiens, UniProt Q02763)
T10 construct: DNA label (qPCR read-out); purchased KINOMEscan (DiscoveRx) ScanMAX panel

RIOK3 = target: T11, RIOK3 (Homo sapiens, UniProt O14730)
T11 construct: DNA label (qPCR read-out); purchased DiscoveRx (KINOMEscan ScanMAX panel)

ERK2 = target: T12, ERK2 (Homo sapiens, UniProt P28482)
T12 construct: DNA label (qPCR read-out); purchased DiscoveRx (KINOMEscan ScanMAX panel)

HIPK4 = target: T13, HIPK4 (Homo sapiens, UniProt Q8NE63)
T13 construct: DNA label (for qPCR read-out); purchased DiscoveRx (KINOMEscan scanMAX panel, contract assay)

EPHB4 = target: T14, EPHB4 (Homo sapiens, UniProt P54760)
T14 construct: purchased DiscoveRx (KINOMEscan scanMAX panel)

FLT3(K663Q) = target: T15, FLT3(K663Q) (Homo sapiens, UniProt P36888, K663Q)
T15 construct: purchased KINOMEscan (DiscoveRx)

CSNK1G3 = target: T16, CSNK1G3 (Homo sapiens, UniProt Q9Y6M4)
T16 construct: DNA label; purchased DiscoveRx (KINOMEscan scanMAX panel)

SGK2 = target: T17, SGK2 (Homo sapiens, UniProt Q9HBY8)
T17 construct: purchased KINOMEscan (DiscoveRx)

YANK1 = target: T18, YANK1 (Homo sapiens, UniProt Q8WU08)
T18 construct: purchased KINOMEscan (DiscoveRx) panel service

MST1 = target: T19, MST1 (Homo sapiens, UniProt Q13043)
T19 construct: DNA label (qPCR read-out); purchased KINOMEscan scanMAX panel (DiscoveRx)

PIK3CD = target: T20, PIK3CD (Homo sapiens, UniProt O00329)
T20 construct: DNA label; purchased DiscoveRx (KINOMEscan scanMAX panel)

EGFR(G719S) = target: T21, EGFR(G719S) (Homo sapiens, UniProt P00533, G719S)
T21 construct: purchased DiscoveRx (KINOMEscan scanMAX panel)

FGFR1 = target: T22, FGFR1 (Homo sapiens, UniProt P11362)
T22 construct: purchased DiscoveRx (KINOMEscan scanMAX panel)

PIP5K2B = target: T23, PIP5K2B (Homo sapiens, UniProt P78356)
T23 construct: DNA label (qPCR read-out); purchased KINOMEscan (DiscoveRx) panel

BRAF(V600E) = target: T24, BRAF(V600E) (Homo sapiens, UniProt P15056, V600E)
T24 construct: DNA label (for qPCR read-out); purchased KINOMEscan scanMAX panel (DiscoveRx)

ACVRL1 = target: T25, ACVRL1 (Homo sapiens, UniProt P37023)
T25 construct: purchased DiscoveRx (KINOMEscan scanMAX panel, service)

[1] = target: ABL1(Q252H)-phosphorylated (Homo sapiens, UniProt P00519, Q252H)
ERK3 = target: T26, ERK3 (Homo sapiens, UniProt Q16659)
T26 construct: DNA label (qPCR read-out); purchased DiscoveRx (KINOMEscan ScanMAX panel)

EPHA6 = target: T27, EPHA6 (Homo sapiens, UniProt Q9UF33)
T27 construct: purchased DiscoveRx (KINOMEscan scanMAX panel)

CAMKK1 = target: T28, CAMKK1 (Homo sapiens, UniProt Q8N5S9)
T28 construct: DNA label (qPCR read-out); purchased KINOMEscan (ScanMAX panel service)

PIK3CA(E545K) = target: T29, PIK3CA(E545K) (Homo sapiens, UniProt P42336, E545K)
T29 construct: DNA label; purchased DiscoveRx (KINOMEscan scanMAX panel)

ERK1 = target: T30, ERK1 (Homo sapiens, UniProt P27361)
T30 construct: DNA label (qPCR read-out); purchased DiscoveRx (KINOMEscan ScanMAX panel)

RAF1 = target: T31, RAF1 (Homo sapiens, UniProt P04049)
T31 construct: purchased DiscoveRx (KINOMEscan scanMAX panel)

TGFBR1 = target: T32, TGFBR1 (Homo sapiens, UniProt P36897)
T32 construct: DNA label (for qPCR read-out); purchased DiscoveRx (KINOMEscan scanMAX panel, contract assay)

PIM2 = target: T33, PIM2 (Homo sapiens, UniProt Q9P1W9)
T33 construct: DNA label (qPCR read-out); purchased KINOMEscan (DiscoveRx) panel

SGK3 = target: T34, SGK3 (Homo sapiens, UniProt Q96BR1)
T34 construct: purchased KINOMEscan (DiscoveRx)

T23 sequence (P78356 whole entry): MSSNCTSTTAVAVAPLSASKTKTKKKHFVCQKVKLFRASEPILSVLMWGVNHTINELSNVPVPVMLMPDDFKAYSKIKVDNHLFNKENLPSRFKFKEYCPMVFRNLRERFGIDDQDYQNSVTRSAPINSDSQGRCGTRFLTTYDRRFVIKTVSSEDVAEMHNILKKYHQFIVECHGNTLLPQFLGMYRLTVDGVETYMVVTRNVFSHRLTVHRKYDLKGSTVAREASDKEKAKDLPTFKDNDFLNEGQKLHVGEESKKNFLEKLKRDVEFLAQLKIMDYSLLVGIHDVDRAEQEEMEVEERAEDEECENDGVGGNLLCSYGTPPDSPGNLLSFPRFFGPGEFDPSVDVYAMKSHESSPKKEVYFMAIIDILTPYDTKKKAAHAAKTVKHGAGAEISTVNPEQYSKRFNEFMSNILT
T14 sequence (P54760 16-987): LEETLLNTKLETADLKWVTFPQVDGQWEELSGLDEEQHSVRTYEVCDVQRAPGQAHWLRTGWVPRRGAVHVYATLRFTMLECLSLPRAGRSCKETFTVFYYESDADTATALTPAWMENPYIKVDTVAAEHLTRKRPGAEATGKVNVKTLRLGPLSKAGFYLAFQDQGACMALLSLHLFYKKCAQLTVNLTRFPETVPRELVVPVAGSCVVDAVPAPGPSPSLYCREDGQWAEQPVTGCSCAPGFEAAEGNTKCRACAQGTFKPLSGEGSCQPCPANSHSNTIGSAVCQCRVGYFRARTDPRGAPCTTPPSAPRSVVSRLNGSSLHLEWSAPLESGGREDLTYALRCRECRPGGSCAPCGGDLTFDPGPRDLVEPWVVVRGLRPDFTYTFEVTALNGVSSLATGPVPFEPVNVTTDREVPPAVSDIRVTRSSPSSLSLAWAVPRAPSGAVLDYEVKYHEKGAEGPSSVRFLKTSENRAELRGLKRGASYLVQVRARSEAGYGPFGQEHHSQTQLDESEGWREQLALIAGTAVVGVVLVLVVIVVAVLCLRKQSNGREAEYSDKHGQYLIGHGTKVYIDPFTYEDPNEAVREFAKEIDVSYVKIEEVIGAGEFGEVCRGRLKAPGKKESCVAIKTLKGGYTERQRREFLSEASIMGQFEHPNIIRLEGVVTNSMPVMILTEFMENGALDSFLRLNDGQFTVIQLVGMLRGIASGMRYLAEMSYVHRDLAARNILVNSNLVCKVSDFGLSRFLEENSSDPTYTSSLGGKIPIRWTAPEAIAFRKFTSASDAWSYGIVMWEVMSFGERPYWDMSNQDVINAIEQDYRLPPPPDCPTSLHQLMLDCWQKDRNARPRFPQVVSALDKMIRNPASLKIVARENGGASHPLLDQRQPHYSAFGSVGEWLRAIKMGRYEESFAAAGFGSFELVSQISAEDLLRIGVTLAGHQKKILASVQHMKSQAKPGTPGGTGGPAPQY
T2 sequence (Q9NQU5 whole entry): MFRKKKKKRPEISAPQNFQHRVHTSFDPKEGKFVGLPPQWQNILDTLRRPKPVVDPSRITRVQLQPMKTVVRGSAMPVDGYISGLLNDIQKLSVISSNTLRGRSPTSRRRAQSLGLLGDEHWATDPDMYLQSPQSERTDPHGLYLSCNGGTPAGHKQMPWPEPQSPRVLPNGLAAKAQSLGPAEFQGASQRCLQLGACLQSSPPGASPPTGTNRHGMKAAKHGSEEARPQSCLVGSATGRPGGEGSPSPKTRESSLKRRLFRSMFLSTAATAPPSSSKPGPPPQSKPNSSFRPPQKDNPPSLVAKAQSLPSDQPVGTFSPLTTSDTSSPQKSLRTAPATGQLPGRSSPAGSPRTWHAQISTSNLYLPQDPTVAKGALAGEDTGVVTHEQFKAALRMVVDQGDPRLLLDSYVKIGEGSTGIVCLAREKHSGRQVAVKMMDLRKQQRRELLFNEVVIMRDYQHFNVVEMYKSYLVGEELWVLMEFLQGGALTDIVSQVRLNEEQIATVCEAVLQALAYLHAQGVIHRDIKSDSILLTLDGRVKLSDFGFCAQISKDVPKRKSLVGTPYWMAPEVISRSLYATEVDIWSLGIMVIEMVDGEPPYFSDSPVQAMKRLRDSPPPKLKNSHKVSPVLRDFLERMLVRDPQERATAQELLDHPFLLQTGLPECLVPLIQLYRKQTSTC
T29 sequence (P42336 whole entry E545K): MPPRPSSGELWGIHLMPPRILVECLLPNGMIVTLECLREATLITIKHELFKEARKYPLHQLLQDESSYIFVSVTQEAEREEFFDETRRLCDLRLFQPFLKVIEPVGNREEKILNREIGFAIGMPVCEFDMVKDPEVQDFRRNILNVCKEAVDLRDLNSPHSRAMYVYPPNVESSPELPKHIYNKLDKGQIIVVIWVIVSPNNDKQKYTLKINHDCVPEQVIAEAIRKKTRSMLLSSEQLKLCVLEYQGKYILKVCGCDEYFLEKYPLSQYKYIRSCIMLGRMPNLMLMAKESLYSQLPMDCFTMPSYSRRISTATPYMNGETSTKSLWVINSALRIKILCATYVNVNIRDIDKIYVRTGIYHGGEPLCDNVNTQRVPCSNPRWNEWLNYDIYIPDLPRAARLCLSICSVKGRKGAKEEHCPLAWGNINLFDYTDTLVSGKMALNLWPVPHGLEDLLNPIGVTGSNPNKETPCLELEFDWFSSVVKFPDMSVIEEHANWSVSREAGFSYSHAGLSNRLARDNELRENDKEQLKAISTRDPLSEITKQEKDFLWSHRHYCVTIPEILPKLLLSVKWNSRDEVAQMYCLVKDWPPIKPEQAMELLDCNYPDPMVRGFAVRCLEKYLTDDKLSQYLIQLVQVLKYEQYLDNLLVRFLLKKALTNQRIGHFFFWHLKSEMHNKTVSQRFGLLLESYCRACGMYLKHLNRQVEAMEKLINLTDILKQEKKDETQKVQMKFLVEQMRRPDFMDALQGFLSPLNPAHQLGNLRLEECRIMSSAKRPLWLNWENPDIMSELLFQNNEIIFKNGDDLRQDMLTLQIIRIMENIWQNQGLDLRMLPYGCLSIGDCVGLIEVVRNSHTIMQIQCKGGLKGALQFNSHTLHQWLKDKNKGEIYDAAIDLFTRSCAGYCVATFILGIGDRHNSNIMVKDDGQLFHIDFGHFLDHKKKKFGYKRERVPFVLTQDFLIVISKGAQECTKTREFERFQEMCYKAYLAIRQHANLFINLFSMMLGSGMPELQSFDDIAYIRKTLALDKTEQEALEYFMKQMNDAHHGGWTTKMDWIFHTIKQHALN
T3 sequence (Q9Y463 whole entry): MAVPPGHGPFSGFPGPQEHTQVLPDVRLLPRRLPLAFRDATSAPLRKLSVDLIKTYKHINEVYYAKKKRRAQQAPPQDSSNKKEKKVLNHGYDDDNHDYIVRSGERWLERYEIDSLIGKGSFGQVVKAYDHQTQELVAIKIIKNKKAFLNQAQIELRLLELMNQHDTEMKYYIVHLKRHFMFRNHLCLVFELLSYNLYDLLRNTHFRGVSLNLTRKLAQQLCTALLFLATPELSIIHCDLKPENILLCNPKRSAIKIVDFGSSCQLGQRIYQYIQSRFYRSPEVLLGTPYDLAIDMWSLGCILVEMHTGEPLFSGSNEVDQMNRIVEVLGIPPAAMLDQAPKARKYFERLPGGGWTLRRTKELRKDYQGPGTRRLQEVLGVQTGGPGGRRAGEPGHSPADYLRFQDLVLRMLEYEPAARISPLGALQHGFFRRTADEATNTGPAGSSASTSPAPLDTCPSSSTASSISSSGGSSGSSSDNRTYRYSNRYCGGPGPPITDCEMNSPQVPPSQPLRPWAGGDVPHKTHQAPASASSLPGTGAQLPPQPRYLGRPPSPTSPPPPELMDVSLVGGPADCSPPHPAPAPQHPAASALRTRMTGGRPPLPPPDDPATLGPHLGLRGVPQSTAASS
T32 sequence (P36897 34-503): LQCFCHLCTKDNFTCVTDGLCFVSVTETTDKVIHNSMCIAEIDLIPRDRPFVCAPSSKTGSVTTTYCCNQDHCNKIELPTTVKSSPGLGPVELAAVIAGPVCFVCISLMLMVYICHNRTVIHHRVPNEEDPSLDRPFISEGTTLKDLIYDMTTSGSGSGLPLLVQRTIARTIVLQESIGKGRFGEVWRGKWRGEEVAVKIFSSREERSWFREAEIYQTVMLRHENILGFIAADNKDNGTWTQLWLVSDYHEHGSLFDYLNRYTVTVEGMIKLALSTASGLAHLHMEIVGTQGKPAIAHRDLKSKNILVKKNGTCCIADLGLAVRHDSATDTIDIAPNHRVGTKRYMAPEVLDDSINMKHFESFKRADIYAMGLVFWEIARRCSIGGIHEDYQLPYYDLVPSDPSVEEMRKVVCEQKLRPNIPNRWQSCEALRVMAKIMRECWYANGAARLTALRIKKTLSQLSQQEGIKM
T11 sequence (O14730 whole entry): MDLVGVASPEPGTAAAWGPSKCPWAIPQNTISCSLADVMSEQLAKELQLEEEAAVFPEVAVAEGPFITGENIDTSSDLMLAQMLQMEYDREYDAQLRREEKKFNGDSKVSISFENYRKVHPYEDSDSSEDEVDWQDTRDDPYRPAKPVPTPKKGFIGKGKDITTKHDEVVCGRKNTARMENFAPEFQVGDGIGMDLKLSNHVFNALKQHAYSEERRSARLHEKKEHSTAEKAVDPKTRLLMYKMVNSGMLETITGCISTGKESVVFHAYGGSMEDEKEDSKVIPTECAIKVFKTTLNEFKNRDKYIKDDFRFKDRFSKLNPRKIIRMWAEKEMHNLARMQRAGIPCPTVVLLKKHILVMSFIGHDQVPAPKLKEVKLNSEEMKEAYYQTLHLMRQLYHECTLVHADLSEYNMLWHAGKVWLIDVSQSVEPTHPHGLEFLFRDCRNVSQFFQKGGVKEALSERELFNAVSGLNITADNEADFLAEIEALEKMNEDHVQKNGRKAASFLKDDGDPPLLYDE

Compound	% Ctrl (PKAC-beta)	% Ctrl (PAK6)	% Ctrl (LYN)	% Ctrl (DYRK1B)	% Ctrl (PAK7)	% Ctrl (WNK2)	% Ctrl (SYK)	% Ctrl (CAMK2B)	% Ctrl (FLT3)	% Ctrl (GSK3B)	% Ctrl (TIE2)	% Ctrl (RIOK3)	% Ctrl (ERK2)	% Ctrl (HIPK4)	% Ctrl (EPHB4)	% Ctrl (FLT3(K663Q))	% Ctrl (CSNK1G3)	% Ctrl (SGK2)	% Ctrl (YANK1)	% Ctrl (MST1)	further results
[2H]C([2H])([2H])N(C(=O)c1ccc(N2CCCN(c3ccnc4sc(C(N)=O)c(N)c34)CC2)cc1)C([2H])([2H])[2H] [15u_D6, 3-amino-4-(4-(4-(bis(methyl-d3)carbamoyl)phenyl)-1,4-diazepan-1-yl)thieno[2,3-b]pyridine-2-carboxamide]	100 % Ctrl	99 % Ctrl	98 % Ctrl	100 % Ctrl	80 % Ctrl	94 % Ctrl	100 % Ctrl	87 % Ctrl	86 % Ctrl	77 % Ctrl	100 % Ctrl	95 % Ctrl	92 % Ctrl	100 % Ctrl	100 % Ctrl	91 % Ctrl	80 % Ctrl	81 % Ctrl	97 % Ctrl	98 % Ctrl	% Ctrl (PIK3CD): 71 % Ctrl; % Ctrl (EGFR(G719S)): 100 % Ctrl; % Ctrl (FGFR1): 92 % Ctrl; % Ctrl (PIP5K2B): 95 % Ctrl; % Ctrl (BRAF(V600E)): 84 % Ctrl; % Ctrl (ACVRL1): 100 % Ctrl; % Ctrl [1]: 75 % Ctrl; % Ctrl (ERK3): 94 % Ctrl; % Ctrl (EPHA6): 100 % Ctrl; % Ctrl (CAMKK1): 100 % Ctrl; % Ctrl (PIK3CA(E545K)): 91 % Ctrl; % Ctrl (ERK1): 97 % Ctrl; % Ctrl (RAF1): 100 % Ctrl; % Ctrl (TGFBR1): 100 % Ctrl; % Ctrl (PIM2): 89 % Ctrl; % Ctrl (SGK3): 80 % Ctrl
CN(C)C(=O)c1ccc(N2CCCN(c3ccnc4sc(C(N)=O)c(N)c34)CC2)cc1 [15u, 3-amino-4-(4-(4-(dimethylcarbamoyl)phenyl)-1,4-diazepan-1-yl)thieno[2,3-b]pyridine-2-carboxamide]	83 % Ctrl	82 % Ctrl	100 % Ctrl	69 % Ctrl	100 % Ctrl	96 % Ctrl	95 % Ctrl	92 % Ctrl	94 % Ctrl	79 % Ctrl	72 % Ctrl	100 % Ctrl	78 % Ctrl	100 % Ctrl	100 % Ctrl	96 % Ctrl	95 % Ctrl	100 % Ctrl	89 % Ctrl	100 % Ctrl	% Ctrl (PIK3CD): 94 % Ctrl; % Ctrl (EGFR(G719S)): 100 % Ctrl; % Ctrl (FGFR1): 98 % Ctrl; % Ctrl (PIP5K2B): 92 % Ctrl; % Ctrl (BRAF(V600E)): 100 % Ctrl; % Ctrl (ACVRL1): 99 % Ctrl; % Ctrl [1]: 94 % Ctrl; % Ctrl (ERK3): 88 % Ctrl; % Ctrl (EPHA6): 100 % Ctrl; % Ctrl (CAMKK1): 96 % Ctrl; % Ctrl (PIK3CA(E545K)): 96 % Ctrl; % Ctrl (ERK1): 100 % Ctrl; % Ctrl (RAF1): 97 % Ctrl; % Ctrl (TGFBR1): 100 % Ctrl; % Ctrl (PIM2): 85 % Ctrl; % Ctrl (SGK3): 79 % Ctrl
